pIC50: −log10 of the molar value. Structures can show the parent of a compound that is named as a salt.
Columns and labels:
Type in all cases: biochemical
PKCι = target: T1, PKCι (Homo sapiens, UniProt P41743); test: Protein Kinase C ι assay (SPA); conditions: human recombinant PKCι from Sf21 insect cells, absence of PMA and phosphatidylserine, read-out: IC50, inhibition of PKC ι
T1 construct: made in house; host or cells: Sf21 insect cells
T1 sequence (P41743 1-596): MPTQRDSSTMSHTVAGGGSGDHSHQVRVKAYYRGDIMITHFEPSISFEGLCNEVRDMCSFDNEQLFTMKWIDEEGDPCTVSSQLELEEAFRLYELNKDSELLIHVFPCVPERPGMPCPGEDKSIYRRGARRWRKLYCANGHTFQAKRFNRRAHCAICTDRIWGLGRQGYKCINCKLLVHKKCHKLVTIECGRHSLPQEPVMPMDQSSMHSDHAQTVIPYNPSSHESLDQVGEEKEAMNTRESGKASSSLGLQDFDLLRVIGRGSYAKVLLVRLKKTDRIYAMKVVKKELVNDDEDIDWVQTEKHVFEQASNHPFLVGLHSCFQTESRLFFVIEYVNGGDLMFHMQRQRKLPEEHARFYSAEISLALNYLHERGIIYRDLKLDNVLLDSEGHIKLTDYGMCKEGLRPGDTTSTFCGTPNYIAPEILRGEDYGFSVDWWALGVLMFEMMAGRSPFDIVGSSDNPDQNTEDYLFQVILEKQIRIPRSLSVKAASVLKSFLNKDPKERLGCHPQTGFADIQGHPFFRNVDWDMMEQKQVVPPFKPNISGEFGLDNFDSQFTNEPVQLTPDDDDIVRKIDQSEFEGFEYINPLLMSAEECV
Experimental: (§1) The compounds of formula 1 are tested for their activity on different protein kinases and PKC isoforms using a scintillation proximity assay (SPA, Amersham International plc). ^33P-labeled peptides are captured onto streptavidin coated yttrium silicate SPA beads. β-particles, emitted from the captured ^33P-labeled substrate in close proximity to the bead are able to excite the scintillant, resulting in the generation of quantifiable light. The assay is performed in a 96-well polystyrene microtiterplate (1450-514, Isoplates, Wallac, Turku, Finland). The reaction mixture (50 μl) contains 10 μl of the test compound together with 10 μl of the relevant kinase, diluted in the relevant dilution buffer, 5 μl of 10 μM phorbol myristate acetate (PMA) in H2O, 5 μl of 1.6 mM phosphatidylserine (Sigma-Aldrich Chemie GmbH, Stein-heim, Germany) in 20 mM Tris/HCL buffer pH 7.4, 5 μl of 0.3% BSA in H2O, 5 μl of 30 μM relevant substrate and 10 μl of 5 μM ATP and 0.1 μCi of ^33P-ATP (Amersham, Freiburg, Germany) in 200 mM Tris/HCL pH 7.5 and 200 mM MgCl2. Incubation is performed for 40 min at room temperature (RT) without shaking. Reaction is stopped by adding 150 μl of cold stop solution containing 10 mM ATP, 5 mM EGTA pH 7.5, 0.1% Triton X-100 and 0.2 mg streptavidin coated yttrium silicate SPA beads (Amersham, RPNQ 0012). The sealed plate is incubated for 60 min at RT. Thereafter the MTP is counted in a Microbeta Jet (Wallac). IC50 measurement is performed on a routine basis by incubation a serial dilution of inhibitor at concentrations ranging between 0.01 and 100 μM according to the method described above. Background values are the signals of the reaction mixture without addition of the relevant kinase and are subtracted from all values. 100% values are the signals of the reaction mixture without addition of inhibitors.
(§2) Dependent on the efficacy of the inhibitors In the various test systems, corresponding IC50 values are calculated from concentration-inhibition curves by nonlinear regression analysis using the program GraphPad Prism (GraphPad Software Inc., San Diego, Calif.). […]

PKCζ = target: T2, PKCζ (Homo sapiens, UniProt Q05513); test: Protein Kinase C ζ assay (SPA); conditions: human recombinant PKCζ, absence of PMA and phosphatidylserine, read-out: IC50, inhibition of PKC ζ
T2 construct: purchased Panvera
T2 sequence (Q05513 1-592): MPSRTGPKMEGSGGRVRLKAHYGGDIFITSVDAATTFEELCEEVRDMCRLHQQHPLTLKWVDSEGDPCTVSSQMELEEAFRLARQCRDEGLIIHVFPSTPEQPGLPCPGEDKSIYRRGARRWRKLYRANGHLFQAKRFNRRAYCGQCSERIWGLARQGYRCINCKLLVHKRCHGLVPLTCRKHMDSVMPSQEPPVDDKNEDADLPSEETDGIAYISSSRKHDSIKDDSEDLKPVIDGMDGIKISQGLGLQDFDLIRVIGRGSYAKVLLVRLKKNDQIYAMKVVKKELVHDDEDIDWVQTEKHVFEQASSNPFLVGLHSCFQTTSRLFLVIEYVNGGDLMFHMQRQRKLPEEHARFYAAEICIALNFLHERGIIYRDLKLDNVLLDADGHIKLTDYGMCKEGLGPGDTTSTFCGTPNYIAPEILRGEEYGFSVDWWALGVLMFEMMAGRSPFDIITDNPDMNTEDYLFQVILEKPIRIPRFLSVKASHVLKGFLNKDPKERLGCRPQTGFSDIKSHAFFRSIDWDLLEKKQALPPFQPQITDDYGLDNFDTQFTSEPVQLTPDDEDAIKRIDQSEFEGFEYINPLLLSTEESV
Experimental: (§3) The compounds of formula 1 are tested for their activity on different protein kinases and PKC isoforms using a scintillation proximity assay (SPA, Amersham International plc). ^33P-labeled peptides are captured onto streptavidin coated yttrium silicate SPA beads. β-particles, emitted from the captured ^33P-labeled substrate in close proximity to the bead are able to excite the scintillant, resulting in the generation of quantifiable light. The assay is performed in a 96-well polystyrene microtiterplate (1450-514, Isoplates, Wallac, Turku, Finland). The reaction mixture (50 μl) contains 10 μl of the test compound together with 10 μl of the relevant kinase, diluted in the relevant dilution buffer, 5 μl of 10 μM phorbol myristate acetate (PMA) in H2O, 5 μl of 1.6 mM phosphatidylserine (Sigma-Aldrich Chemie GmbH, Stein-heim, Germany) in 20 mM Tris/HCL buffer pH 7.4, 5 μl of 0.3% BSA in H2O, 5 μl of 30 μM relevant substrate and 10 μl of 5 μM ATP and 0.1 μCi of ^33P-ATP (Amersham, Freiburg, Germany) in 200 mM Tris/HCL pH 7.5 and 200 mM MgCl2. […] Thereafter the MTP is counted in a Microbeta Jet (Wallac). […]
as §2

Lck = target: T3, Lck (Homo sapiens, UniProt P06239); test: Lck (p56Lck) assay (SPA); conditions: human recombinant Lck, read-out: IC50, inhibition of Lck
T3 construct: purchased Upstate (Dundee, UK)
T3 sequence (P06239 whole entry): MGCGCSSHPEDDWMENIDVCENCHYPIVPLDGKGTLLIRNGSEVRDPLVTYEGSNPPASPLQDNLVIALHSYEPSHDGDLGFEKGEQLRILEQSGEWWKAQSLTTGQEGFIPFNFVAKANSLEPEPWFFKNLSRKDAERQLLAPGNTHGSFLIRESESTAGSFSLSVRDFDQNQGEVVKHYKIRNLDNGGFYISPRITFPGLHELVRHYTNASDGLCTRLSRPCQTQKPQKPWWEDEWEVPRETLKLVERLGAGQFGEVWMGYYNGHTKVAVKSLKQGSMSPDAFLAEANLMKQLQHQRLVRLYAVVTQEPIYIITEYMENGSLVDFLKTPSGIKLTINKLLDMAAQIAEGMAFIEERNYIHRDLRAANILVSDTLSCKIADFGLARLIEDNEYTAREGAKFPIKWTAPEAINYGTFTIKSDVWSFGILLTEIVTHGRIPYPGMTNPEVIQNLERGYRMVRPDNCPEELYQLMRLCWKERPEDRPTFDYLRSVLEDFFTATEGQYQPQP
Experimental: as §3
Human recombinant Lck was obtained from Upstate (Dundee, UK) and is used in a scintillation proximity assay described in Section A.1. […] Thereafter the MTP is counted in a Microbeta Jet (Wallac). […] IC50 values are calculated from the graph by sigmoidal curve fitting. […]

PKCε = target: T4, PKCε (Homo sapiens, UniProt Q02156); test: Protein Kinase C ε assay (SPA); conditions: human recombinant PKCε, PKCη pseudosubstrate, read-out: IC50, inhibition of PKC ε
T4 construct: purchased Panvera
T4 sequence (Q02156 1-737): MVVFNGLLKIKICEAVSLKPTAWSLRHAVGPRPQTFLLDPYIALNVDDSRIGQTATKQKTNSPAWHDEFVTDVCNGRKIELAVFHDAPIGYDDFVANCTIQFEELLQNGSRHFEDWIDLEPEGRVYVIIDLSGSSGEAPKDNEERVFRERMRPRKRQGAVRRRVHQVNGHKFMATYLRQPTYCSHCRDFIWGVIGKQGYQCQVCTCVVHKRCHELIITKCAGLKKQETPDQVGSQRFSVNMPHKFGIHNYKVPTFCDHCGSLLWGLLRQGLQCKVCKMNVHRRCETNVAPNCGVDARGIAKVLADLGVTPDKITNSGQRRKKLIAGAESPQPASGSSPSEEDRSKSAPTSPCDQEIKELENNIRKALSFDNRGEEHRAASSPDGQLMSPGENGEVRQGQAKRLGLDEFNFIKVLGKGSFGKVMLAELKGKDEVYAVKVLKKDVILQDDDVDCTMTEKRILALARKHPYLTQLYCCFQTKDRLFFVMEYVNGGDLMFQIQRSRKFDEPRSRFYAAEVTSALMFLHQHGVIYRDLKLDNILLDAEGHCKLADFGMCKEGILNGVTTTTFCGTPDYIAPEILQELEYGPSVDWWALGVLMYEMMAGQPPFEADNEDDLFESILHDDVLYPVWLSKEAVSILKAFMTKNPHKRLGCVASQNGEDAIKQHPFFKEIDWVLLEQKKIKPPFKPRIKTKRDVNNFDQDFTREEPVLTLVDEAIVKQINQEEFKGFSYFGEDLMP
Experimental: as §1
Dependent on the efficacy of the inhibitors In the various test systems, corresponding IC50 values are calculated from concentration-inhibition curves by nonlinear regression analysis using the program GraphPad Prism (GraphPad Software Inc., San Diego, Calif.).
Human recombinant PKCε was obtained from Panvera and is used under the assay conditions as described above (Section A.1). The enzyme is diluted in PKC dilution buffer containing 1 mM Hepes pH 7.4, 0.5 mM DTT and 0.001% Triton X-100. The kinase reaction is performed with the biotinylated PKCη pseudosubstrate solved in H2O.

PKA = target: T5, PKA (Homo sapiens, UniProt P17612); test: Protein Kinase A assay (SPA); conditions: human recombinant PKA, read-out: IC50, inhibition of PKA
T5 construct: purchased Panvera
Experimental: as §1
Human recombinant PKA was obtained from Panvera and is used in a scintillation proximity assay described in Section A.1. […] Thereafter the MTP is counted in a Microbeta Jet (Wallac). […] IC50 values are calculated from the graph by sigmoidal curve fitting.

COc1ccc(S(=O)(=O)Nc2ccc(Nc3cc(-c4ccc5c(ccn5CCCN5CCCC5)c4)ncn3)cc2)cc1 [Example 145, 4-Methoxy-N-(4-{6-[1-(3-pyrrolidin-1-yl-propyl)-1H-indol-5-yl]-pyrimidin-4-ylamino}-phenyl)-benzenesulfonamide formic acid salt]
pIC50 (PKCι): 4.47 to 5.15

O=S(=O)(Nc1ccc(Nc2cc(-c3ccc4c(ccn4CCCN4CCCC4)c3)ncn2)cc1)c1c(F)cccc1F [Example 143, 2,6-Difluoro-N-(4-{6-[1-(3-pyrrolidin-1-yl-propyl)-1H-indol-5-yl]-pyrimidin-4-ylamino}-phenyl)-benzenesulfonamide formic acid salt]
pIC50 (PKCζ): 4.60 to 4.82

COc1ccc(S(=O)(=O)Nc2ccc(Nc3cc(-c4ccc5c(ccn5CCCN(C)C)c4)ncn3)cc2)cc1 [Example 131, N-(4-[6-[1-(3-Dimethylamino-propyl)-1H-indol-5-yl]pyrimidin-4-ylamino]phenyl)-4-methoxy-benzenesulfonamide]
pIC50 (Lck): > 5.52

CCN(CC)CCCn1cc(-c2cc(Nc3ccc(NS(=O)(=O)c4ccc(F)cc4F)cc3)ncn2)c2ccccc21 [Example 175, N-(4-{6-[1-(3-Diethylamino-propyl)-1H-indol-3-yl]-pyrimidin-4-ylamino}-phenyl)-2,4-difluoro-benzenesulfonamide formic acid salt]
pIC50 (PKCζ): 4.60 to 4.82

Cc1csc(-c2cc(Nc3ccc(NS(=O)(=O)c4c(F)cccc4F)cc3)ncn2)c1 [Example 117, 2,6-Difluoro-N-{4-[6-(4-methyl-thiophen-2-yl)-pyrimidin-4-ylamino]-phenyl}-benzenesulfonamide]
pIC50 (PKCε): 4.68 to 5.40
pIC50 (PKA): 4.80 to 5.52

O=S(=O)(Nc1ccc(Nc2cc(-c3cccc4ccccc34)ncn2)cc1)c1ccc(Cl)c(Cl)c1 [Example 10, 3,4-Dichloro-N-[4-(6-naphthalen-1-yl-pyrimidin-4-ylamino)-phenyl]-benzenesulfonamide]
pIC50 (PKA): 4.80 to 5.52

O=S(=O)(Nc1ccc(Nc2cc(-c3ccc4[nH]ccc4c3)ncn2)cc1)c1cccc(F)c1 [Example 121, 3-Fluoro-N-{4-[6-(1H-indol-5-yl)-pyrimidin-4-ylamino]-phenyl}-benzenesulfonamide]
pIC50 (PKA): 4.80 to 5.52

CN1CCN(CCCn2ccc3cc(-c4cc(Nc5ccc(NS(=O)(=O)c6ccc(F)c(Cl)c6)cc5)ncn4)ccc32)CC1 [Example 162, 3-Chloro-4-fluoro-N-[4-(6-{1-[3-(4-methyl-piperazin-1-yl)-propyl]-1H-indol-5-yl}-pyrimidin-4-ylamino)-phenyl]-benzenesulfonamide formic acid salt]
pIC50 (PKCι): 4.47 to 5.15

From patent US20080242681A1, “N-4-(6-(Hetero)Aryl-Pyrimidin-4-Ylaminophenyl)-Benzenesulfonamides as Kinase Inhibitors” (Altana Pharma AG, priority 2004, published 2008)
